In the supplement of paper PMC10307832:

Experiments:
Experiment in all cases: relative viability (nuclei count vs DMSO), 5 days (fraction); higher = more cells survive
Calu-6 = system: Calu-6
Procedure, shortened: (§1)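 A single step with final 0.05% Triton X-100, 1% formaldehyde and 1 ug/ml Hoechst fixed the cells and stained nuclei 5 days after treatment. Lung cancer cell lines in 1536-well plates had been treated by pin tool the day after seeding with one drug alone or a fixed anchor-drug dose plus five library-drug doses (not always all listed) in √10 steps, and nuclei were counted on 4× images. Relative viability is the ratio of nuclei in treated wells to nuclei in vehicle wells, taken as the median of duplicate plates.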

NCI-H1563 = system: NCI-H1563
Procedure, shortened: as §1

IA-LM = system: IA-LM
Procedure, shortened: as §1

A549 = system: A549
Procedure, shortened: as §1

EBC-1 = system: EBC-1
Procedure, shortened: as §1

NCI-H1703 = system: NCI-H1703
Procedure, shortened: as §1

NCI-H1299 = system: NCI-H1299
Procedure, shortened: as §1

O=c1[nH]c2ccccc2n1C1CCN(CCCC(c2ccc(F)cc2)c2ccc(F)cc2)CC1 [Pimozide] + C[C@@H](Oc1cc(-c2cnn(C3CCNCC3)c2)cnc1N)c1c(Cl)ccc(F)c1Cl [Crizotinib] (partner 1 µM)
relative viability (Calu-6; first compound 0.08 µM): 0.781
relative viability (Calu-6; first compound 0.253 µM): 0.814
relative viability (Calu-6; first compound 0.8 µM): 0.793
relative viability (Calu-6; first compound 2.53 µM): 0.679
relative viability (Calu-6; first compound 8 µM): 0.624
relative viability (NCI-H1563; first compound 0.08 µM): 0.824
relative viability (NCI-H1563; first compound 0.253 µM): 0.844
relative viability (NCI-H1563; first compound 0.8 µM): 0.803
relative viability (NCI-H1563; first compound 2.53 µM): 0.775
relative viability (NCI-H1563; first compound 8 µM): 0.645
relative viability (IA-LM; first compound 0.08 µM): 0.975
relative viability (IA-LM; first compound 0.253 µM): 0.88
relative viability (IA-LM; first compound 0.8 µM): 0.988
relative viability (IA-LM; first compound 2.53 µM): 0.879
relative viability (IA-LM; first compound 8 µM): 0.859
relative viability (A549; first compound 0.08 µM): 0.756
relative viability (A549; first compound 0.253 µM): 0.668
relative viability (A549; first compound 0.8 µM): 0.643
relative viability (A549; first compound 2.53 µM): 0.658
relative viability (A549; first compound 8 µM): 0.644
relative viability (EBC-1; first compound 0.08 µM): 0.19
relative viability (EBC-1; first compound 0.253 µM): 0.232
relative viability (EBC-1; first compound 0.8 µM): 0.199
relative viability (EBC-1; first compound 2.53 µM): 0.175
relative viability (EBC-1; first compound 8 µM): 0.152
relative viability (NCI-H1703; first compound 0.08 µM): 0.489
relative viability (NCI-H1703; first compound 0.253 µM): 0.852
relative viability (NCI-H1703; first compound 0.8 µM): 0.666
relative viability (NCI-H1703; first compound 2.53 µM): 0.403
relative viability (NCI-H1703; first compound 8 µM): 0.545
relative viability (NCI-H1299; first compound 0.08 µM): 0.955
relative viability (NCI-H1299; first compound 0.253 µM): 0.838
relative viability (NCI-H1299; first compound 0.8 µM): 0.934
relative viability (NCI-H1299; first compound 2.53 µM): 0.811
relative viability (NCI-H1299; first compound 8 µM): 0.885

O=C(O)CCCCC(CCSCc1ccccc1)SCc1ccccc1 (centres undefined) [CPI-613] + CC1(C)CCC(c2ccc(Cl)cc2)=C(CN2CCN(c3ccc(C(=O)NS(=O)(=O)c4ccc(N[C@H](CCN5CCOCC5)CSc5ccccc5)c(S(=O)(=O)C(F)(F)F)c4)cc3)CC2)C1 [Navitoclax] (partner 0.5 µM)
relative viability (Calu-6; first compound 5 µM): 0.72
relative viability (Calu-6; first compound 15.81 µM): 0.744
relative viability (Calu-6; first compound 50 µM): 0.595
relative viability (Calu-6; first compound 158.11 µM): 0.107
relative viability (Calu-6; first compound 500 µM): 0.0529
relative viability (IA-LM; first compound 5 µM): 0.692
relative viability (IA-LM; first compound 15.81 µM): 0.707
relative viability (IA-LM; first compound 50 µM): 0.685
relative viability (IA-LM; first compound 158.11 µM): 0.0974
relative viability (IA-LM; first compound 500 µM): 0.0132
relative viability (A549; first compound 5 µM): 1.11
relative viability (A549; first compound 15.81 µM): 0.977
relative viability (A549; first compound 50 µM): 1.09
relative viability (A549; first compound 158.11 µM): 0.308
relative viability (A549; first compound 500 µM): 0.0559
relative viability (EBC-1; first compound 5 µM): 0.373
relative viability (EBC-1; first compound 15.81 µM): 0.404
relative viability (EBC-1; first compound 50 µM): 0.397
relative viability (EBC-1; first compound 158.11 µM): 0.0793
relative viability (EBC-1; first compound 500 µM): 0.0379
relative viability (NCI-H1703; first compound 5 µM): 1.01
relative viability (NCI-H1703; first compound 15.81 µM): 0.967
relative viability (NCI-H1703; first compound 50 µM): 0.829
relative viability (NCI-H1703; first compound 158.11 µM): 0.144
relative viability (NCI-H1703; first compound 500 µM): 0.0899
relative viability (NCI-H1299; first compound 5 µM): 1.05
relative viability (NCI-H1299; first compound 15.81 µM): 1.05
relative viability (NCI-H1299; first compound 50 µM): 1.06
relative viability (NCI-H1299; first compound 158.11 µM): 1.01
relative viability (NCI-H1299; first compound 500 µM): 1.04

O=c1[nH]c2ccccc2n1C1CCN(CCCC(c2ccc(F)cc2)c2ccc(F)cc2)CC1 [Pimozide] + CC1(C)CCC(c2ccc(Cl)cc2)=C(CN2CCN(c3ccc(C(=O)NS(=O)(=O)c4ccc(N[C@H](CCN5CCOCC5)CSc5ccccc5)c(S(=O)(=O)C(F)(F)F)c4)cc3)CC2)C1 [Navitoclax] (partner 0.5 µM)
relative viability (Calu-6; first compound 0.08 µM): 0.785
relative viability (Calu-6; first compound 0.253 µM): 0.805
relative viability (Calu-6; first compound 0.8 µM): 0.844
relative viability (Calu-6; first compound 2.53 µM): 0.704
relative viability (Calu-6; first compound 8 µM): 0.774
relative viability (IA-LM; first compound 0.08 µM): 0.686
relative viability (IA-LM; first compound 0.253 µM): 0.723
relative viability (IA-LM; first compound 0.8 µM): 0.923
relative viability (IA-LM; first compound 2.53 µM): 0.746
relative viability (IA-LM; first compound 8 µM): 0.728
relative viability (A549; first compound 0.08 µM): 1.28
relative viability (A549; first compound 0.253 µM): 1.31
relative viability (A549; first compound 0.8 µM): 1.15
relative viability (A549; first compound 2.53 µM): 1.14
relative viability (A549; first compound 8 µM): 0.987
relative viability (EBC-1; first compound 0.08 µM): 0.356
relative viability (EBC-1; first compound 0.253 µM): 0.493
relative viability (EBC-1; first compound 0.8 µM): 0.367
relative viability (EBC-1; first compound 2.53 µM): 0.309
relative viability (EBC-1; first compound 8 µM): 0.211
relative viability (NCI-H1703; first compound 0.08 µM): 1.05
relative viability (NCI-H1703; first compound 0.253 µM): 0.99
relative viability (NCI-H1703; first compound 0.8 µM): 0.982
relative viability (NCI-H1703; first compound 2.53 µM): 0.801
relative viability (NCI-H1703; first compound 8 µM): 0.782
relative viability (NCI-H1299; first compound 0.08 µM): 1.04
relative viability (NCI-H1299; first compound 0.253 µM): 0.969
relative viability (NCI-H1299; first compound 0.8 µM): 0.99
relative viability (NCI-H1299; first compound 2.53 µM): 1.03
relative viability (NCI-H1299; first compound 8 µM): 1.03

Cc1cnc(-c2cnc(NCCNc3ccc(C#N)cn3)nc2-c2ccc(Cl)cc2Cl)[nH]1 + CC1(C)CCC(c2ccc(Cl)cc2)=C(CN2CCN(c3ccc(C(=O)NS(=O)(=O)c4ccc(N[C@H](CCN5CCOCC5)CSc5ccccc5)c(S(=O)(=O)C(F)(F)F)c4)cc3)CC2)C1 [Navitoclax] (partner 0.5 µM)
relative viability (Calu-6; first compound 0.08 µM): 0.826
relative viability (Calu-6; first compound 0.253 µM): 0.773
relative viability (Calu-6; first compound 0.8 µM): 0.789
relative viability (Calu-6; first compound 2.53 µM): 0.717
relative viability (IA-LM; first compound 0.08 µM): 0.78
relative viability (IA-LM; first compound 0.253 µM): 0.71
relative viability (IA-LM; first compound 0.8 µM): 0.809
relative viability (IA-LM; first compound 2.53 µM): 0.695
relative viability (A549; first compound 0.08 µM): 1.23
relative viability (A549; first compound 0.253 µM): 1.18
relative viability (A549; first compound 0.8 µM): 1.21
relative viability (A549; first compound 2.53 µM): 1.18
relative viability (EBC-1; first compound 0.08 µM): 0.399
relative viability (EBC-1; first compound 0.253 µM): 0.351
relative viability (EBC-1; first compound 0.8 µM): 0.542
relative viability (EBC-1; first compound 2.53 µM): 0.23
relative viability (NCI-H1703; first compound 0.08 µM): 1.15
relative viability (NCI-H1703; first compound 0.253 µM): 1.03
relative viability (NCI-H1703; first compound 0.8 µM): 1.2
relative viability (NCI-H1703; first compound 2.53 µM): 1.08
relative viability (NCI-H1299; first compound 0.08 µM): 1.04
relative viability (NCI-H1299; first compound 0.253 µM): 1.02
relative viability (NCI-H1299; first compound 0.8 µM): 1.09
relative viability (NCI-H1299; first compound 2.53 µM): 1.04
